Biological target: T1, HIV-1 protease wild type protein (Human immunodeficiency virus type 1 group M subtype B, UniProt P04585)
T1 construct: HIV-1 protease wild type protein; purchased AscoProt Biotech, Prague, Czech Republic
Test: Biochemical protease assay
Protocol: For the determination of their in vitro activity on HIV proteases the test substances are dissolved in DMSO and serially diluted. In each case 0.5 μl of substance dilution, 20 μl of 0.2-1 nM HIV-1 protease wild type or mutant protein (e.g., multiresistant isolate “35513”: L10I, I15V, L19I, K20R, E35D, M36I, R41K, I54V, L63P, H69K, A71V, T74P, I84V, L89M, L90M, 193L, AscoProt Biotech, Prague, Czech Republic) in buffer 1 (50 mM sodium acetate pH 4.9, 0.02% BSA, 0.1 mM EDTA, 0.5 mM DTT) and 20 μl of 8 μM substrate (M1865 from Bachem, Bubendorf, Switzerland; Matayoshi et al., Science 1990, 247, 954-8) in buffer 1 are added successively to a 384 well microtiter plate (Greiner, Frickenhausen, Germany), incubated for 60-180 minutes at 32° C. and the fluorescence is measured (e.g., Tecan Safire, 340 nm extinction, 520 nm emission). IC50 values are determined by graphical plotting the substance concentration against the percentage inhibition.

SMILES	IC50 [nM]
Cc1cc(-c2cccc(NC(=O)CCN)c2)c(Cl)cc1C1=C(O)[C@]2(CC[C@@H]3CCC[C@@H]3C2)OC1=O [Example 183]	≤ 100
CCS(=O)(=O)Nc1cccc(-c2cc(C)c(C3=C(O)C4(CCCCC4)OC3=O)cc2Cl)c1 [Example 190]	≤ 100
CC(=O)N1CCCC2(C1)OC(=O)C(c1cc(Cl)c(-c3cccc(S(C)(=O)=O)c3)cc1C)=C2O (stereo not drawn) [Example 104]	≤ 100
Cc1cc(-c2cccc(S(C)(=O)=O)c2)c(Cl)cc1C1=C(O)C2(CCCN(CC(=O)NCc3ccccc3)C2)OC1=O (single isomer, unassigned) [Example 164]	≤ 100
Cc1cc(-c2cccc(S(C)(=O)=O)c2)c(Cl)cc1C1=C(O)C2(CCCN(CC(=O)NCc3ccc(OC(F)(F)F)cc3)C2)OC1=O (stereo not drawn) [Example 166]	≤ 100
Cc1cc(-c2ccccc2)c(Cl)cc1C1=C(O)C2(CCCC2)OC1=O [Example 201]	≤ 100
CCOC1CCCCC12OC(=O)C(c1cc(C)c(-c3ccc(Cl)cc3)cc1Cl)=C2O (single isomer, unassigned) [Example 82]	≤ 100
COC1CCC2(CC1)OC(=O)C(c1cc(C)c(-c3cccc(C#N)c3)cc1C)=C2O (stereo not drawn) [Example 56]	≤ 100
Cc1cc(-c2cccc(S(C)(=O)=O)c2)c(Cl)cc1C1=C(O)C2(CCCN(C(=O)CCC(=O)c3ccccn3)C2)OC1=O (stereo not drawn) [Example 108]	≤ 100
Cc1cc(-c2cccc(NC(=O)CCCN(C)C)c2)c(Cl)cc1C1=C(O)C2(CCCCC2)OC1=O [Example 181]	≤ 100
Cc1cc(-c2cccc(S(C)(=O)=O)c2)c(Cl)cc1C1=C(O)C2(CCN(C(=O)CCc3ccc(S(C)(=O)=O)cc3)CC2)OC1=O [Example 109]	≤ 100
Cc1cc(-c2ccc(Cl)cc2)c(C)cc1C1=C(O)C2(CCCCCC2)OC1=O [Example 10]	≤ 100
Cc1cc(-c2cccc(OC(F)(F)F)c2)c(Cl)cc1C1=C(O)C2(CCCCC2)OC1=O [Example 38]	≤ 100
Cc1cc(-c2ccc(OC(F)(F)F)cc2)c(Cl)cc1C1=C(O)C2(CCCCC2)OC1=O [Example 35]	≤ 100
Cc1cc(-c2cccc(S(C)(=O)=O)c2)c(Cl)cc1C1=C(O)C2(CCN(C(=O)N(C(C)C)C(C)C)CC2)OC1=O [Example 156]	≤ 100
Cc1cc(-c2cccc(S(C)(=O)=O)c2)c(Cl)cc1C1=C(O)C2(CCCN(CC(=O)C(C)(CF)CF)C2)OC1=O (stereo not drawn) [Example 129]	≤ 100
Cc1cc(-c2ccc(F)c([N+](=O)[O-])c2)c(Cl)cc1C1=C(O)C2(CCCCC2)OC1=O [Example 48]	≤ 100
Cc1cc(-c2cccc(S(C)(=O)=O)c2)c(Cl)cc1C1=C(O)C2(CCN(C(=O)CCCc3ccccc3)CC2)OC1=O [Example 145]	≤ 100
Cc1cc(-c2cccc(N)c2)c(Cl)cc1C1=C(O)[C@]2(CC[C@@H]3CCC[C@@H]3C2)OC1=O [Example 175]	≤ 100
Cc1cc(-c2cccc(S(C)(=O)=O)c2)c(Cl)cc1C1=C(O)C2(CCCN(CC(=O)NCc3ccccn3)C2)OC1=O (stereo not drawn) [Example 163]	≤ 100
Cc1cc(-c2cccc(S(C)(=O)=O)c2)c(Cl)cc1C1=C(O)C2(CCCN(C(C)C3=NOCCO3)C2)OC1=O (stereo not drawn) [Example 102]	≤ 100
Cc1cc(-c2cccc(S(C)(=O)=O)c2)c(Cl)cc1C1=C(O)C2(CCCN(C(=O)CCCc3ccccc3)C2)OC1=O (stereo not drawn) [Example 135]	≤ 100
Cc1cc(-c2cccc(S(C)(=O)=O)c2)c(Cl)cc1C1=C(O)C2(CCCN(C(=O)/C=C\c3cccc(C#N)c3)C2)OC1=O (stereo not drawn) [Example 124]	≤ 100
Cc1cc(-c2ccc(NS(C)(=O)=O)cc2)c(Cl)cc1C1=C(O)C2(CCC3CCCC3C2)OC1=O (stereo not drawn) [Example 180]	≤ 100
COC1CCC2(CC1)OC(=O)C(c1cc(C)c(-c3ccc(Cl)cc3)cc1C)=C2O (stereo not drawn) [Example 58]	≤ 100
Cc1cc(-c2cccc(S(C)(=O)=O)c2)c(Cl)cc1C1=C(O)C2(CCCN(CC(=O)NCc3ccsc3)C2)OC1=O (stereo not drawn) [Example 167]	≤ 100
Cc1cc(-c2cccc(S(C)(=O)=O)c2)c(Cl)cc1C1=C(O)C2(CCCC2)OC1=O [Example 200]	≤ 100
